These are literature values, as cited in patent publication US20090036693A1, “METHOD OF PURIFYING UBIQUINONE-10” (Kyowa Hakko Kogyo Co., Ltd., priority 2005, published 2009).

For this data set the following is noted: solvent methanol; background statement.

The structures appear in SMILES notation. Some results are limits rather than exact numbers.

Consider `COC1=C(OC)C(=O)C(C/C=C(\C)CC/C=C(\C)CC/C=C(\C)CC/C=C(\C)CC/C=C(\C)CC/C=C(\C)CC/C=C(\C)CC/C=C(\C)CC/C=C(\C)CCC=C(C)C)=C(C)C1=O` [ubiquinone-10], for which the solubility in methanol was no more than 5000 µg/mL.
